Reference: patent US10314323B2, “Methods for improving the condition of hair in non-human animals” (Hill's Pet Nutrition, Inc., priority 2012, dated 2019)
Entries after “also recorded” stand apart in the source; their conditions may differ.

Test system: healthy adult cats
Assay: Hair 18-MEA content after feeding amino acid supplemented diets to healthy cats
Type: in vivo, cat
Conditions: versus control base diet, regression model with base line as covariant; p<0.05 for isoleucine and threonine, p>0.05 for leucine
Excerpt: The hair was clipped from the left middle flank areas of 24 healthy adult cats. The clipped regions measured approximately 20.32 cm by 10.16 cm (about 8 inches by about 4 inches). Hair was clipped as close to the skin as possible. The cats were then fed a base diet consisting of a commercially available nutritionally complete food for a period of 90 days. The nutrient content of the base food is set out in Table 1. On day 90, newly grown hair was clipped from the left middle flanks of the cats. The clipped regions measured approximately 19.05 cm by 8.89 cm (about 7.5 inches by about 3.5 inches). Samples of the clipped hair from each cat were retained and analysed for their 18-MEA content in order to determine the base line levels. The cats were divided into four groups of 6. The age, sex and nurturing status of the cats were balanced between the groups. The groups were randomly assigned a diet selected from the base diet, the base diet plus supplemental leucine, the base diet plus supplemental isoleucine, and the base diet plus supplemental threonine as shown in Table 2. The groups were fed the assigned diets for 90 days. On day 180, the newly grown hair was clipped from the left middle flanks of the cats. The clipped regions measured approximately 17.78 cm by 7.62 cm (about 7 inches by about 3 inches). Samples of clipped hair from each cat were retained and analysed for 18-MEA content. For the 18-MEA analysis, hair samples were first washed with circulating ethyl ether for 6 hours to remove the surface lipids and oils. The hair samples were cut into pieces about 5 mm in length or less, digested and extracted for 18-MEA that was measured with a gas chromatograph. The 18-MEA data were analysed using a regression model. Hair 18-MEA content was the dependent variable, and diet was used as the independent variable. The base line data were used as the covariant.

Compound	Effect on 18-MEA concentration of the hair
C[C@@H](O)[C@H](N)C(=O)O [threonine, (2S, 3R)-2-amino-3-hydroxybutanoic acid]	increase; also recorded: significantly increased
CC[C@H](C)[C@H](N)C(=O)O [isoleucine, (2S, 3S)-2-amino-3-methylpentanoic acid]	increase; also recorded: significantly increased
CC(C)C[C@H](N)C(=O)O [Leucine, leucine, reference compound]	no significant effect
